Measured values from patent publication US20180221343A1, “PHARMACEUTICAL COMPOSITION FOR PREVENTING OR TREATING MACULAR DEGENERATION” (KOREA RESEARCH INSTITUTE OF CHEMICAL TECHNOLOGY, priority 2011, published 2018).

Experiments:
[1] = tested on: rat corneal epithelial wound; assay: Corneal Wound Healing Assay (1); format: in vivo, SD rats; conditions: topical 10 mg/ml (1%) every 6 hour; observed at 0 and 18 hours
Method: (§1) SD rats (male, 8 weeks, 250 g) were used. Animal study protocol was in accordance with the Association for Research in Vision and Ophthalmology Statement for the Use of Animals in Ophthalmic and Visual Research. All animals were housed in individual cages and maintained under standard conditions (12 hour light-dark cycle).
(§2) 2. Corneal Epithelium Removal Rats were anesthetized by Zoletil® (50 mg/kg, Tiletamina 25 mg, Zolazepam 25 mg; Vibrac, Carros, France) and Rompun® (10 mg/kg, Bayer, France). The cornea was anesthetized by topical 0.5% proparacaine (Alcaine®; Alcon, Fort Worth, Tex., USA). After applying 0.5% proparacaine drops, 5.0 mm Trephine Blade® (Katena, Denville, N.J., USA) was placed and fixed firmly on the corneal surface. One drop of 20% ethanol were put into the tephine well and left in place for 30 seconds, then absorbed with a dry cellulose sponge (Merocel®; Medtronic Solan, Jacksonville, Fla., USA) and irrigated with normal saline. And the epithelium was removed in 6.0 mm diameter.
The drugs were each topically applied in 10 mg/ml (1%) concentration (in 5% DMSO, 10% PEG (Mw 400) and 85% saline (0.9% NaCl)) in every 6 hour.
(§3) The corneal wounds were captured by digital camera under cobalt blue light and the defect area was analyzed by Image J software (Ver 4.1, NIH). The significance between Vehicle and each group was analyzed by paired T-test, and the significance of the test was analyzed by One Way ANOVA analysis.

[2] = tested on: rat corneal epithelial wound; assay: Corneal Wound Healing Assay (2); format: in vivo, SD rats; conditions: topical 3 and 6 mg/ml every 6 hour; observed at 0 and 18 hours
Method: as §1
as §2, with “Rats” for “2. Corneal Epithelium Removal Rats”
The drugs were each topically applied in 3 mg/ml (0.3%) and 6 mg/ml (0.6%) concentrations (in 5% DMSO, 10% PEG (Mw 400) and 85% saline (0.9% NaCl)) in every 6 hour, respectively.
as §3

[3] = tested on: VEGF receptor 2 (FLK-1); assay: Expression of VEGF receptor 2 (FLK-1) in corneal tissue by RT-PCR; format: in vivo, rats; conditions: subconjunctival injection 20 μl; KR 0.3 mg/ml, Avastin 10 mg/ml
Method: The tests were performed for confirming corneal angiogenesis as a marker. To a Trizole™ solution (200 μl), were added each corneal tissue obtained from the rats of Example 1. Total RNAs were isolated and then cDNAs were prepared by using a reverse transcriptase. Each cDNA (5 μl) was mixed with the primer set of FLK-1 and then PCR amplication was performed in a thermocycler under the following conditions; denaturation at 94° C. for 5 minutes, and then 35 cycles of denaturation at 94° C. for 20 seconds, annealing at 58° C. for 1 minute, and extension at 72° C. for 25 seconds. Each PCR product was loaded on 1% agarose gel; and the resulting ethidium bromide fluorescent bands were identified.

[4] = tested on: corneal angiogenesis; assay: Inhibitory effects against corneal angiogenesis in animal models having corneal damage (subconjunctival injection); format: in vivo, Sprague Dawley rats; conditions: subconjunctival injection 20 μl; KR 0.3 mg/ml, Avastin 10 mg/ml; 1 week after administration
Method: (§4) The tests were performed by using Sprague Dawley rats (8 weeks old, male) as animals having corneal damage (15 rats for the experiment group; and 1 rat for normal group, respectively). The corneal damage was induced by applying a cotton swab coated with silver nitrate to the surface of the rat corneas, as as to induce a damage having a diameter of 2 mm in the central cornea. On the third day after inducing the corneal damages, we confirmed the establishment of corneal angiogenesis-inducing models and then subconjunctivally injected a solution (20 μl) prepared by dissolving the compound of Preparation Example 23, i.e., (2R,3R,4S)-6-amino-4-[N-(4-chlorophenyl)-N-(1H-imidazol-2-ylmethyl)amino]-3-hydroxy-2-methyl-2-dimethoxymethyl-3,4-dihydro-2H-1-benzopyran (KR-31831) in phosphate buffered saline (PBS) containing 10% PEG 400, in the concentration of 0.3 mg/ml. In case of the control group, the PBS (20 μl) containing 10% PEG 400 was subconjunctivally injected. As a positive control, a solution (20 μl) prepared by dissolving Avastin (used as an angiogenesis inhibitor) in PBS in the concentration of 10 mg/ml was subconjunctivally injected. The evaluations quantifying the photographs of FIG. 1 were performed by using the Image J (NIH, USA) program and the results thereof were shown in FIG. 2.

[5] = tested on: corneal angiogenesis; assay: Inhibitory effects against corneal angiogenesis, subconjunctival injection and eye drop-administration; format: in vivo, Sprague Dawley rats; conditions: subconjunctival injection 20 μl plus eye drop 50 μl; KR 0.3 mg/ml, Avastin 10 mg/ml
Method: as §4, with “In case of the control group, the PBS (20 μl) containing 10% PEG 400 was subconjunctivally injected. As a positive control, a solution (20 μl) prepared by dissolving Avastin (used as an angiogenesis inhibitor) in PBS in the concentration of 10 mg/ml was subconjunctivally injected.” left out
Except for performing both the subconjunctival injection and the eye drop-administration of (2R,3R,4S)-6-amino-4-[N-(4-chlorophenyl)-N-(1H-imidazol-2-ylmethyl)amino]-3-hydroxy-2-methyl-2-dimethoxymethyl-3,4-dihydro-2H-1-benzopyran and Avastin, the inhibitory effects against angiogenesis were evaluated according to the same manners as in Example 1. […]

[6] = tested on: retinal angiogenesis; assay: Laser-induced retinal damage model, retinal angiogenesis by dextran-FITC fluorescence; format: in vivo, Brown Norway rats; conditions: Avastin 2.5 mg/ml, 10 μl into the vitreous humor; 2 weeks after administration
Method: The tests were performed by using Brown Norway rats (8 weeks old, male) as animals having retinal damage (15 rats for the experiment group; and 1 rat for normal group, respectively). The retinal Bruch's membrane of each Brown Norway rat was damaged using a Zeiss 532s laser at the intensity of […], 30 ms. On the third day after the laser-damaging, the drug was administered into the vitreous humor in order to observe the retinal vessels. The compound of the present invention, i.e., (2R,3R,4S)-6-amino-4-[N-(4-chlorophenyl)-N-(1H-imidazol-2-ylmethyl)amino]-3-hydroxy-2-methyl-2-dimethoxymethyl-3,4-dihydro-2H-1-benzopyran was administered with the solutions (10 μl of each solution) obtained by dissolving in PBS containing 30% PEG 400 and 10% DMSO, in the concentrations of 0.1 mg/ml and 0.3 mg/ml. Avastin was administered with the solution (10 μl) obtained by dissolving in PBS in the concentration of 2.5 mg/ml. In case of the control group, the PBS (10 μl) was administered. In addition, (2R,3R,4S)-6-amino-4-[N-(4-chlorophenyl)-N-(1H-imidazol-2-ylmethyl)amino]-3-hydroxy-2-methyl-2-dimethoxymethyl-3,4-dihydro-2H-1-benzopyran was intraperitoneally administered with the solution obtained by dissolving in PBS containing 30% PEG 400 and 10% DMSO, in the dose of 25 mg/kg. 2 weeks after the drug administrations, dextran-FITC was injected into the left ventricle in the dose of 25 mg/kg, followed by enucleating the eye after 5 minutes therefrom; and then fixing in a 10% formalin solution. The cornea and the eye lens were removed from the fixed eye, which was then observed under a fluorescence microscope. Angiogenesis was identified by the intensity and leakage of dextran-FITC in the laser-induced damage site; and the results thereof were shown in FIG. 7. The evaluations quantifying the photographs of FIG. 7 were performed by using the Image J (NIH, USA) program and the results thereof were shown in FIG. 8.

Molecule | inhibitory effect on normal healing of rat corneal epithelial wound [1] | rate (%) of wound healing compared to vehicle control and KR-31831 (rank) [1] | inhibitory effect on normal healing of rat corneal epithelial wound [2] | FLK-1 expression in the cornea (control group 100%) [3] | corneal angiogenesis in comparison with the corneal angiogenesis (100%) of the control group [4] | angiogenesis in comparison with the angiogenesis (100%) of the control group [5] | fluorescence intensity at laser-induced damage site (surrounding vessels = 100) [6]
Cc1ccc(Nc2nccc(N(C)c3ccc4c(C)n(C)nc4c3)n2)cc1S(N)(=O)=O [Pazopanib] | showed inhibitory effect | the least lowest rate (%) of wound healing among the three but lower than the control | showed inhibitory effect |  |  |  | 
Cc1cc(-c2cc(OC(=O)c3ccccc3)ccc2Cl)cc2nnc(Nc3ccc(OCCN4CCCC4)cc3)nc12 [TG100801] | showed inhibitory effect | the lowest rate (%) of wound healing | showed inhibitory effect |  |  |  | 
Avastin: protein drug used in anti-VEGF antibody injection therapy; used as an angiogenesis inhibitor, positive control |  |  |  | about 59% | 66.4±10.6% | 29.3±8.6% | 46±3
CNC1(C)C2CCC(C2)C1(C)C (stereo not shown) [ATG-003] | showed inhibitory effect | the second lowest rate (%) of wound healing | showed inhibitory effect |  |  |  | 
